For data set [1] the following is noted: female, rat, in vivo, 40 mg/kg.
The nature of data set [2]: 28-day (4-week GLP) toxicology study in dogs, toxicokinetic exposure. The settings on record: both sexes, dog, in vivo, toxicokinetic data, 28-day toxicology study in dogs, combined male and female. From the text: The exposure limits will be applied on mean values within a cohort.

Read-outs that look alike come from different tables or passages of the source.

Turning to `[2H]C([2H])([2H])N(C([2H])([2H])[2H])C([2H])([2H])C([2H])([2H])c1c[nH]c2cccc(O)c12` [psilocin-d10, 3-(2-(bis(methyl-d3)amino)ethyl-1,1,2,2-d4)-1H-indol-4-ol], the AUC(0-t) came out at 3630 ng·h/mL in data set [1] and 123 ng·h/mL in data set [2] (read-out: predefined maximum exposure level, AUC0-24). Further, the Cmax came to 343 ng/mL in data set [1] and 63 ng/mL in data set [2] (read-out: predefined maximum exposure level, Cmax). Further, for the setting “Sprague Dawley, rat, in vivo, po”, the bioavailability is around 60%. Further, the “reduction in oral concentration (Cmax) in comparison to psilocin after psilocybin” value (oral, Sprague Dawley rats, molar dose-normalised) is listed as 16%. The “difference in systemic exposure versus psilocin” value (rats) is reported as around 30%.

The term Cmax denotes the highest concentration seen after dosing. As usually defined, the bioavailability is the share of a dose that reaches the circulation, judged against a reference dose that is usually intravenous.

The values above are taken from patent publication US20240293367A1, “METHODS OF TREATING DISORDERS WITH A […]” (Cybin IRL Limited, priority 2023, published 2024).
